Test results reported in patent US9072698B2, “Method for screening anti-cancer compounds inhibiting function of TM4SF5 and anti-cancer composition containing chalcone compounds” (Seoul National University Industry Foundation, priority 2006, dated 2015).
Converted amounts (≈) assume the structure as drawn.

Legend:
Type in all cases: cell-based
[1] = system: HCT15 (colon adenocarcinoma); assay: In vitro cytotoxicity, sulforhodamine B (SRB) method, HCT15; settings: Homo sapiens; HCT-15, SRB method; read-out: cytotoxicity (ED50) HCT-15
Experimental: (§1) The chalcone derivatives of the present invention were evaluated for in vitro cytotoxicity against human carcinoma cell lines using a sulforhodamine B (SRB) method, which was developed in 1989 by the National Cancer Institute (NCI), USA.
(§2) HCT15 (colon adenocarcinoma; ATCC CCL-225), PC-3 (prostate adenocarcinoma; ATCC CRL-1435), and A-549 (lung carcinoma; ATCC CCL-185) cell lines were used. All of these carcinoma cells were sub-cultured at the Korean Research Institute of Bioscience and Biotechnology (KRIBB), Korea.
(§3) The human carcinoma cell lines were cultured in 10% FCS-containing RPMI 1640 medium (Gibco Cat. No. 31800) in an incubator at 37° C. under 5% CO2, and sub-cultured twice per week.
(§4) Cells were detached from the attached surface using 0.25% Trypsin (Sigma) and 3 mM CDTA (1,2-cyclohexane diamine tetraacetic acid, Sigma) in phosphate buffered saline (PBS, Sigma).
(§5) Compounds to be tested (the chalcone derivatives set forth in Table 1) were dissolved in a small amount of dimethylsulfoxide (DMSO, Sigma), and diluted in culture medium to a desired concentration. The final concentration of DMSO was less than 0.5%. The diluted compounds (final concentration: 30, 10, 3, 1 and 0.3 μg/ml) were sterilized through a 0.22-μm microfilter (Millipore). The cytotoxicity of the compounds to human carcinoma cell lines was assessed using a typical SRB method.

A-549 (lung carcinoma) = assay: In vitro cytotoxicity, sulforhodamine B (SRB) method, A-549; settings: Homo sapiens, A549; A-549, SRB method; read-out: cytotoxicity (ED50) A-549
Experimental: as §1, §2, §3, §4, §5

[2] = system: PC-3 (prostate adenocarcinoma); assay: In vitro cytotoxicity, sulforhodamine B (SRB) method, PC-3; settings: Homo sapiens; PC-3, SRB method; read-out: cytotoxicity (ED50) PC-3
Experimental: as §1, §2, §3, §4, §5

Structure (SMILES)	IC50 [1]	IC50 (A-549 (lung carcinoma))	IC50 [2]
O=C(/C=C/c1ccc(O)cc1)c1ccc(OS(=O)(=O)c2ccc([N+](=O)[O-])cc2)cc1 [Compound 38, 4′-(p-nitrobenzenesulfonate)-4-hydroxychalcone]	52 µg/mL (≈ 122 µM)	57 µg/mL (≈ 134 µM)	47 µg/mL (≈ 110 µM)
Nc1ccc(S(=O)(=O)Oc2ccc(C(=O)/C=C/c3ccc(O)cc3)cc2)cc1 [Compound 39, 4′-(p-aminobenzenesulfonate)-4-hydroxychalcone]	39 µg/mL (≈ 98.6 µM)	37 µg/mL (≈ 93.6 µM)	38 µg/mL (≈ 96.1 µM)
O=C(/C=C/c1ccc(O)cc1)c1ccc(OS(=O)(=O)c2ccccc2)cc1 [Compound 40, 4′-(benzenesulfonate)-4-hydroxychalcone]	31 µg/mL	30 µg/mL	39 µg/mL
CS(=O)(=O)Oc1ccc(C(=O)/C=C/c2ccc(O)cc2)cc1 [Compound 41, 4′-(methanesulfonate)-4-hydroxychalcone]	42 µg/mL	49 µg/mL	48 µg/mL
Cc1ccc(S(=O)(=O)Nc2ccc(C(=O)/C=C/c3ccc(O)c(O)c3)cc2)cc1 [Compound 42, 4′-(p-toluenesulfonylamino)-3,4-dihydroxychalcone]	7 µg/mL (≈ 17.1 µM)	10 µg/mL (≈ 24.4 µM)	18 µg/mL (≈ 44 µM)
Cc1ccc(S(=O)(=O)Nc2ccc(C(=O)/C=C/c3cccc(O)c3O)cc2)cc1 [Compound 43, 4′-(p-toluenesulfonylamino)-2,3-dihydroxychalcone]	12 µg/mL (≈ 29.3 µM)	18 µg/mL (≈ 44 µM)	14 µg/mL (≈ 34.2 µM)
Cc1ccc(S(=O)(=O)Nc2ccc(C(=O)/C=C/c3cc(O)ccc3O)cc2)cc1 [Compound 45, 4′-(p-toluenesulfonylamino)-2,5-dihydroxychalcone]	11 µg/mL (≈ 26.9 µM)	12 µg/mL (≈ 29.3 µM)	14 µg/mL (≈ 34.2 µM)
Cc1ccc(S(=O)(=O)Nc2cccc(C(=O)/C=C/c3ccc(O)c(O)c3)c2)cc1 [Compound 46, 3′-(p-toluenesulfonylamino)-3,4-dihydroxychalcone]	9 µg/mL (≈ 22 µM)	13 µg/mL (≈ 31.7 µM)	8 µg/mL (≈ 19.5 µM)
Cc1ccc(S(=O)(=O)Nc2ccccc2C(=O)/C=C/c2ccc(O)c(O)c2)cc1 [Compound 47, 2′-(p-toluenesulfonylamino)-3,4-dihydroxychalcone]	8 µg/mL (≈ 19.5 µM)	11 µg/mL (≈ 26.9 µM)	17 µg/mL (≈ 41.5 µM)
O=C(/C=C/c1ccc(O)c(O)c1)c1ccc(NS(=O)(=O)c2ccc(O)cc2)cc1 [Compound 48, 4′-(p-hydroxybenzenesulfonylamino)-3,4-dihydroxychalcone]	7 µg/mL (≈ 17 µM)	8 µg/mL (≈ 19.4 µM)	11 µg/mL (≈ 26.7 µM)
O=C(/C=C/c1cccc(O)c1O)c1ccc(NS(=O)(=O)c2ccc(O)cc2)cc1 [Compound 49, 4′-(p-hydroxybenzenesulfonylamino)-2,3-dihydroxychalcone]	8 µg/mL (≈ 19.4 µM)	6 µg/mL (≈ 14.6 µM)	14 µg/mL (≈ 34 µM)
O=C(/C=C/c1ccc(O)cc1O)c1ccc(NS(=O)(=O)c2ccc(O)cc2)cc1 [Compound 50, 4′-(p-hydroxybenzenesulfonylamino)-2,4-dihydroxychalcone]	9 µg/mL (≈ 21.9 µM)	10 µg/mL (≈ 24.3 µM)	9 µg/mL (≈ 21.9 µM)
O=C(/C=C/c1cc(O)ccc1O)c1ccc(NS(=O)(=O)c2ccc(O)cc2)cc1 [Compound 51, 4′-(p-hydroxybenzenesulfonylamino)-2,5-dihydroxychalcone]	6 µg/mL (≈ 14.6 µM)	13 µg/mL (≈ 31.6 µM)	11 µg/mL (≈ 26.7 µM)
O=C(/C=C/c1ccc(O)c(O)c1)c1cccc(NS(=O)(=O)c2ccc(O)cc2)c1 [Compound 52, 3′-(p-hydroxybenzenesulfonylamino)-3,4-dihydroxychalcone]	7 µg/mL (≈ 17 µM)	6 µg/mL (≈ 14.6 µM)	5 µg/mL (≈ 12.2 µM)
O=C(/C=C/c1cccc(O)c1O)c1cccc(NS(=O)(=O)c2ccc(O)cc2)c1 [Compound 53, 3′-(p-hydroxybenzenesulfonylamino)-2,3-dihydroxychalcone]	8 µg/mL (≈ 19.4 µM)	7 µg/mL (≈ 17 µM)	8 µg/mL (≈ 19.4 µM)
O=C(/C=C/c1ccc(O)cc1O)c1cccc(NS(=O)(=O)c2ccc(O)cc2)c1 [Compound 54, 3′-(p-hydroxybenzenesulfonylamino)-2,4-dihydroxychalcone]	7 µg/mL (≈ 17 µM)	9 µg/mL (≈ 21.9 µM)	9 µg/mL (≈ 21.9 µM)
O=C(/C=C/c1cc(O)ccc1O)c1cccc(NS(=O)(=O)c2ccc(O)cc2)c1 [Compound 55, 3′-(p-hydroxybenzenesulfonylamino)-2,5-dihydroxychalcone]	6 µg/mL (≈ 14.6 µM)	7 µg/mL (≈ 17 µM)	12 µg/mL (≈ 29.2 µM)
O=C(/C=C/c1ccc(O)c(O)c1)c1ccccc1NS(=O)(=O)c1ccc(O)cc1 [Compound 56, 2′-(p-hydroxybenzenesulfonylamino)-3,4-dihydroxychalcone]	5 µg/mL (≈ 12.2 µM)	3 µg/mL (≈ 7.29 µM)	6 µg/mL (≈ 14.6 µM)

Structure (SMILES)	IC50 [1]	IC50 (A-549 (lung carcinoma))	IC50 [2]
O=C(/C=C/c1cccc(O)c1O)c1ccccc1NS(=O)(=O)c1ccc(O)cc1 [Compound 57, 2′-(p-hydroxybenzenesulfonylamino)-2,3-dihydroxychalcone]	9 µg/mL (≈ 21.9 µM)	7 µg/mL (≈ 17 µM)	10 µg/mL (≈ 24.3 µM)
O=C(/C=C/c1ccc(O)cc1O)c1ccccc1NS(=O)(=O)c1ccc(O)cc1 [Compound 58, 2′-(p-hydroxybenzenesulfonylamino)-2,4-dihydroxychalcone]	11 µg/mL (≈ 26.7 µM)	12 µg/mL (≈ 29.2 µM)	10 µg/mL (≈ 24.3 µM)
O=C(/C=C/c1cc(O)ccc1O)c1ccccc1NS(=O)(=O)c1ccc(O)cc1 [Compound 59, 2′-(p-hydroxybenzenesulfonylamino)-2,5-dihydroxychalcone]	9 µg/mL (≈ 21.9 µM)	13 µg/mL (≈ 31.6 µM)	20 µg/mL (≈ 48.6 µM)
O=C(/C=C/c1ccc(O)c(O)c1)c1ccc(NS(=O)(=O)c2cccc(O)c2)cc1 [Compound 60, 4′-(m-hydroxybenzenesulfonylamino)-3,4-dihydroxychalcone]	4 µg/mL (≈ 9.72 µM)	7 µg/mL (≈ 17 µM)	8 µg/mL (≈ 19.4 µM)
O=C(/C=C/c1cccc(O)c1O)c1ccc(NS(=O)(=O)c2cccc(O)c2)cc1 [Compound 61, 4′-(m-hydroxybenzenesulfonylamino)-2,3-dihydroxychalcone]	12 µg/mL (≈ 29.2 µM)	10 µg/mL (≈ 24.3 µM)	10 µg/mL (≈ 24.3 µM)
O=C(/C=C/c1ccc(O)cc1O)c1ccc(NS(=O)(=O)c2cccc(O)c2)cc1 [Compound 62, 4′-(m-hydroxybenzenesulfonylamino)-2,4-dihydroxychalcone]	7 µg/mL (≈ 17 µM)	12 µg/mL (≈ 29.2 µM)	8 µg/mL (≈ 19.4 µM)
O=C(/C=C/c1cc(O)ccc1O)c1ccc(NS(=O)(=O)c2cccc(O)c2)cc1 [Compound 63, 4′-(m-hydroxybenzenesulfonylamino)-2,5-dihydroxychalcone]	8 µg/mL (≈ 19.4 µM)	10 µg/mL (≈ 24.3 µM)	14 µg/mL (≈ 34 µM)
O=C(/C=C/c1ccc(O)c(O)c1)c1cccc(NS(=O)(=O)c2cccc(O)c2)c1 [Compound 64, 3′-(m-hydroxybenzenesulfonylamino)-3,4-dihydroxychalcone]	4 µg/mL (≈ 9.72 µM)	3 µg/mL (≈ 7.29 µM)	7 µg/mL (≈ 17 µM)
O=C(/C=C/c1cccc(O)c1O)c1cccc(NS(=O)(=O)c2cccc(O)c2)c1 [Compound 65, 3′-(m-hydroxybenzenesulfonylamino)-2,3-dihydroxychalcone]	9 µg/mL (≈ 21.9 µM)	4 µg/mL (≈ 9.72 µM)	13 µg/mL (≈ 31.6 µM)
O=C(/C=C/c1ccc(O)cc1O)c1cccc(NS(=O)(=O)c2cccc(O)c2)c1 [Compound 66, 3′-(m-hydroxybenzenesulfonylamino)-2,4-dihydroxychalcone]	11 µg/mL (≈ 26.7 µM)	11 µg/mL (≈ 26.7 µM)	13 µg/mL (≈ 31.6 µM)
O=C(/C=C/c1cc(O)ccc1O)c1cccc(NS(=O)(=O)c2cccc(O)c2)c1 [Compound 67, 3′-(m-hydroxybenzenesulfonylamino)-2,5-dihydroxychalcone]	7 µg/mL (≈ 17 µM)	14 µg/mL (≈ 34 µM)	15 µg/mL (≈ 36.5 µM)
O=C(/C=C/c1ccc(O)c(O)c1)c1ccccc1NS(=O)(=O)c1cccc(O)c1 [Compound 68, 2′-(m-hydroxybenzenesulfonylamino)-3,4-dihydroxychalcone]	6 µg/mL (≈ 14.6 µM)	8 µg/mL (≈ 19.4 µM)	10 µg/mL (≈ 24.3 µM)
O=C(/C=C/c1cccc(O)c1O)c1ccccc1NS(=O)(=O)c1cccc(O)c1 [Compound 69, 2′-(m-hydroxybenzenesulfonylamino)-2,3-dihydroxychalcone]	7 µg/mL (≈ 17 µM)	8 µg/mL (≈ 19.4 µM)	16 µg/mL (≈ 38.9 µM)
O=C(/C=C/c1ccc(O)cc1O)c1ccccc1NS(=O)(=O)c1cccc(O)c1 [Compound 70, 2′-(m-hydroxybenzenesulfonylamino)-2,4-dihydroxychalcone]	8 µg/mL (≈ 19.4 µM)	9 µg/mL (≈ 21.9 µM)	11 µg/mL (≈ 26.7 µM)
O=C(/C=C/c1cc(O)ccc1O)c1ccccc1NS(=O)(=O)c1cccc(O)c1 [Compound 71, 2′-(m-hydroxybenzenesulfonylamino)-2,5-dihydroxychalcone]	12 µg/mL (≈ 29.2 µM)	7 µg/mL (≈ 17 µM)	24 µg/mL (≈ 58.3 µM)
O=C(/C=C/c1ccc(O)c(O)c1)c1ccc(NS(=O)(=O)c2ccc(F)cc2)cc1 [Compound 72, 4′-(p-fluorobenzensulfonylamino)-3,4-dihydroxychalcone]	10 µg/mL (≈ 24.2 µM)	11 µg/mL (≈ 26.6 µM)	8 µg/mL (≈ 19.4 µM)
O=C(/C=C/c1ccc(O)c(O)c1)c1ccc(NS(=O)(=O)c2ccccc2F)cc1 [Compound 74, 4′-(o-fluorobenzensulfonylamino)-3,4-dihydroxychalcone]	8 µg/mL (≈ 19.4 µM)	11 µg/mL (≈ 26.6 µM)	14 µg/mL (≈ 33.9 µM)
